pIC50: −log10 of the molar value. Like-named read-outs stand apart in the source and are kept apart here.
Experiments:
p38 kinase = target: T1, p38 kinase (Homo sapiens, UniProt Q16539); test: p38 Kinase Assay; type: biochemical
T1 construct: GST (N); made in house; host or cells: E. coli
Procedure: The peptide substrate used in the p38 assay was biotin-IPTSPITTTYFFFRRR-amide. The p38 and MEK6 proteins were purified to homogeneity from E. coli expression systems. The fusion proteins were tagged at the N-terminus with Glutathione-S-Transferase (GST). The maximum activation was achieved by incubating 20 uL of a reaction mixture of 30 nM MEK6 protein and 120 nM p38 protein in the presence of 1.5 uM peptide and 10 mM Mg (CH3CO2)2 in 100 mM HEPES7 pH 7.5, added to 15 uL of a mixture of 1.5 uM ATP with 0.08 uCi [g-^33P]ATP, with or without 15 uL of inhibitor in 6% DMSO. The controls were reactions in the presence (negative controls) or absence (positive controls) of 50 mM EDTA. Reactions were allowed to proceed for 60 min at room temperature and quenched with addition of 50 uL of 250 mM EDTA and mixed with 150 uL of Streptavidin SPA beads (Amersham) to 0.5 mg/reaction. The Dynatech Microfluor white U-bottom plates were sealed and the beads were allowed to settle overnight. The plates were counted in a Packard TopCount for 60 seconds. IC50 values were obtained by fitting raw data to % I=100*(1−(I−C2)/(C1−C2)), where I was […], C1 was positive control, and C2 was negative control.

[1] = system: serum TNFα elevation in mice treated with lipopolysaccharide (LPS); test: Murine LPS-Stimulated Serum TNF Inhibition; type: in vivo; details: Mus musculus, 1.5 h, dose 30 mpk, read-out: % inh. (dose): % inhibition of murine TNF production in mice following an LPS challenge
Procedure: Murine LPS—Stimulated Serum TNF Inhibition Protocol
The potency of compounds of the invention as inhibitors of serum TNFα elevation in mice treated with lipopolysaccharide (LPS) was determined as follows; a) for subcutaneous (s.c.) administration, test compound was dissolved in DMSO and added to a mixture of 0.9% sodium chloride solution and 30% Trappsol HPB-20 (Cyclodextrin Technology Development Inc., Gainesville, Fla. USA) for a final DMSO concentration of 1%. The dosing solution was sonicated briefly and 0.2 mL was injected subcutaneously 10 min prior to LPS injection; b) for per oral (p.o.) administration, test compounds were formulated in 0.2 mL of PBS and 0.1% Tween 80 and given orally via gavage 10 min prior to LPS administration.
C3/hen female mice were injected intraperitoneally with 200 μg/kg LPS (Escherichia coil, Serotype 0111:B4, Sigma Chemical Co, St. Louis, Mo.) in PBS and sacrificed 90 min later by CO2 asphyxiation. Blood was immediately taken from the caudal vena cava and plasma prepared and frozen at −80° C. Plasma concentrations of TNF were measured by ELISA (Genzyme Co., Cambridge Mass.).

[2] = system: TNF release from human peripheral blood mononuclear cells (PBMNC); test: Cell Based Assay for Cytokines Production in PBMNC (TNF release after LPS); details: PBMC, read-out: TNF/PBMNC (inhibition of TNF release from human PBMNC following stimulation with LPS, IC50)
Procedure: Cell Based Assay for Cytokines Production in PBMNC
Human peripheral blood mononuclear cells were isolated from heparinized blood by LSM (Organon Teknika) from volunteer donors. Purified human peripheral blood mononuclear cells were then suspended at a concentration of 2×10^6 cells/ml in RPMI 1640 medium supplemented with 10% heat-inactivated FBS and 1% antibiotics. Aliquots of 100 μl (2×10^5 cells) were added to 96-well microliter plates. Test compounds at […] dose ranges (final-DMSO concentration in culture medium was 0.1%) were then added to the cells for 10–15 minutes before the addition of lipopolysaccharide (1 ng/ml). After incubation at 37° C. in a 5% CO2 incubator for 18–20 h, cell free supernatants were collected by centrifugation at 800 g. The supernatant was then assayed for the amount of TNFα and IL-1β by using Quantikine immunoassay kits developed by R&D Systems (Minneapolis, Minn.).

[3] = Cell Based Efficacy (MTT Assay), cytotoxicity toward HFF; details: human, HFF cells (human foreskin fibroblasts), Table 7, HFF cell line
Procedure: Cell Based Efficacy (MTT Assay)
The potency of compounds of the invention are tested for their ability to inhibit cell proliferation and cell viability. The metabolic conversion of 3-(4,5-dimethylthiazol-2-yl)-2,5-diphenyltetrazolium bromide (MTT, Sigma #M2128) to a reduced form was a commonly used measure of cellular viability. Following was the procedure:
Cells are maintained in 75 cm^2 tissue culture flasks until ready for use. The cells are grown and plated for the assay in Dulbecco's modified Eagle's media containing 10% fetal bovine serum. For example, the following cell lines can be used: a) human foreskin fibroblasts (HFF), b) HT29 (human colon carcinoma cell line), c) MDA-MB468 (human breast carcinoma cell line), d) RKO (human colon adenocarcinoma cell line), e) SW620 (human colon carcinoma cell line), f) A549 (human lung carcinoma cell line), and g) MIA PACA (human pancreatic carcinoma cell line). Cells are maintained at 37° C. in 10% CO2, 90% humidified air. Cells are plated in 96-well tissue culture plates at the densities listed below (Table 6). 100 μL of cell suspension was added to each well of the 96-well plate except the top row of the plate which contains no cells and serves as a reference for the spectrophotometer.
Cells are incubated overnight in Dulbecco's modified Eagle's media containing 10% fetal bovine serum at 37° C. in 10% CO2, 90% humidified air prior to dosing. Cells are dosed in 10 sequential 3-fold dilutions starting at 30 μM depending upon the solubility of the compound. Compounds with solubilities of less than 30 μM are dosed at the highest soluble concentration. Stock solutions of compounds are made in 100% dimethyl sulfoxide (DMSO). Stock solutions are diluted in Dulbecco's modified Eagle's media containing 100 ug/mL gentamicin and 0.3 to 0.6% DMSO at the twice the highest concentration to be placed on the cells. If compounds have been dissolved in DMSO the final concentration of DMSO on the cells was kept below 0.3%. 3-fold serial dilutions are performed on each compound to prepare 10 concentrations of the compound for dosing. 100 μL of diluted compound was added to the 100 μL of media currently on the dish. For each concentration of compound, 2–4 replicate wells are prepared.
Cells are returned to incubator and allowed to proliferate in the presence of compound for 72 h before addition of MTT. MTT was prepared in phosphate buffered saline (Irvine Scientific #9240) at a concentration of 2 mg/mL. 50 μL per well of MTT solution was added to the 200 μL of media to yield a final concentration of 0.4 mg/mL and plates are returned to the incubator for 4 h. After 4 h incubation the media, compound and MTT mixture was aspirated from the plates and 100 μL of 100% DMSO was added to each well in addition to 25 uL of Sorenson's Buffer (0.1M glycine, 0.1M NaCl, pH 10.5). Quantitation of metabolic reduction of MTT in each plate was performed by reading optical density at 570 nm wavelength on a Molecular Devices UV max microplate reader. Growth inhibition curves and 50% inhibitory concentrations are determined using Microsoft Excel.

[4] = target: T2, JNK3 kinase (Jnk-3alpha-2) (Homo sapiens, UniProt P53779); test: JNK3 Kinase Assay; type: biochemical; details: Table 8; read-out: JNK3 kinase (inhibition of JNK3 kinase, IC50)
T2 construct: Jnk-3alpha-2 (as a truncated construct, residues 39 to 224) was expressed in E. coli as a GST fusion protein; Following purification the GST portion was removed by thrombin cleavage; fused on or other part: An N-terminal GST tag was used for expression and removed by thrombin cleavage before the assay
T2 sequence (P53779 39-402 limits assumed): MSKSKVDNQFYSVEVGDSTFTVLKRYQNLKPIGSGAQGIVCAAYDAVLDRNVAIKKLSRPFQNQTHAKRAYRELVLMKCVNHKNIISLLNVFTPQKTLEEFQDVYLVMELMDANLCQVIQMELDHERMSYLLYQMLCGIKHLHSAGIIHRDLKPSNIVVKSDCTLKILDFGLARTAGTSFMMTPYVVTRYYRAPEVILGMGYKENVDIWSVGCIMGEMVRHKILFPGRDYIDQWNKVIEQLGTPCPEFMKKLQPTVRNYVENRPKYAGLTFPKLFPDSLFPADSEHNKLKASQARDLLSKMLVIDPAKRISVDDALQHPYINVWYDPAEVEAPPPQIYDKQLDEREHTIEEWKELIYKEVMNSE
Procedure: JNK3 Kinase Assay Jnk-3alpha-2 (as a truncated construct, residues 39 to 224) was expressed in E. coli as a GST fusion protein. Following purification the GST portion was removed by thrombin cleavage. The enzyme was stored at −80° C. Substrate c-Jun was expressed as a GST fusion protein including a signal peptide (biotinylation site) in E. coli. Following purification the substrate was biotinylated on a specific lysine in the signal peptide using biotin ligase. Prior to assay Jnk-3 was pre-activated by incubation with MgATP. The enzyme (10 nM) was screened in 40 mM HEPES (pH 7.4), 150 mM NaCl, 20 mM glycerophosphate, 1 mM DTT, 0.2 mM vanadate, 200 nM biotin-c-Jun, 5 mM MgCl2 and 10 uM ATP. Inhibitors were added over a conc range of from 0 to 10 uM in DMSO (fc 3%). The reaction was stopped by the addition of 25 mM EDTA. Phospho-c-Jun was detected using homogeneous time resolved fluorescence (HTRF) with a Eu-labelled antiphosphoserine (Serine 73) and streptavidin APC.

[5] = Table 8, compounds wherein Z is N, read-out: p38 kinase (inhibition of p38 kinase, IC50)
[6] = Table 7, compounds wherein Z is CH, read-out: P38 kinase (inhibition of p38 kinase, IC50)

T1 sequence (Q16539 whole entry): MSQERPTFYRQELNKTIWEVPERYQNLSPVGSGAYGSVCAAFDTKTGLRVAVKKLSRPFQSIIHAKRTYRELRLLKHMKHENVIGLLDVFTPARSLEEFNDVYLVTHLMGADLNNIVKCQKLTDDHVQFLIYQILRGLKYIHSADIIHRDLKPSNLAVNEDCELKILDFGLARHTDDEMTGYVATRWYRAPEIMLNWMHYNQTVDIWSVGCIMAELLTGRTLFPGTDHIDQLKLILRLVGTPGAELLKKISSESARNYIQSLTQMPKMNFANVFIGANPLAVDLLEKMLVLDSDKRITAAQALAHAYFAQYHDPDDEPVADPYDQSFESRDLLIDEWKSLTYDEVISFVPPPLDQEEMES

Structure (SMILES) | pIC50 (p38 kinase; [5]) | pIC50 ([2]; Table 8, LPS stimulation) | pIC50 (p38 kinase; [6]) | pIC50 ([2]; Table 7, LPS stimulation) | pIC50 [4] | inhibition in vivo at 30 mg/kg ([1]; Table 8, LPS challenge) [%] | IC50 at 72 h [3] [nM] | inhibition in vivo at 30 mg/kg ([1]; Table 7, LPS challenge) [%]
Fc1ccc(-c2nn3ccccc3c2-c2ccncc2)cc1 [Example 1, 2-(4-Fluorophenyl)-3-(4-pyridyl)-pyrazolo[1,5-a]pyridine] | – | – | > 6.30 | > 6.30 | – | – | > 50000 | 65
COc1ccn2nc(-c3ccc(F)cc3)c(-c3ccncc3)c2c1 [Example 5, 2-(4-Fluorophenyl)-5-methoxy-3-(4-pyridinyl)pyrazolo[1,5-a]pyridine] | – | – | 5.30 to 6.30 | 5.30 to 6.30 | – | – | – | 11
CC(C)Nc1nccc(-c2c(-c3ccc(F)cc3)nn3cc(C(F)(F)F)ccc23)n1 [Example 69, 4-[2-(4-Fluorophenyl)-6-trifluoromethylpyrazolo[1,5-a]pyridin-3-yl]-N-(2-propyl)-2-pyrimidinamine] | > 6.30 | > 6.30 | – | – | – | 45 | – | –
Fc1ccc(-c2nn3cc(C(F)(F)F)ccc3c2-c2ccnc(NC3CC3)n2)cc1 [Example 68, N-Cyclopropyl-4-[2-(4-fluorophenyl)-6-trifluoromethylpyrazolo[1,5-a]pyridin-3-yl]-2-pyrimidinamine] | > 6.30 | > 6.30 | – | – | > 6.30 | 24 | – | –
N#Cc1ccc2c(-c3ccnc(NC4CC4)n3)c(-c3ccc(F)cc3)nn2c1 [Example 73, N-Cyclopropyl-4-[6-cyano-2-(4-fluorophenyl)pyrazolo[1,5-a]pyridin-3-yl]-2-pyrimidinamine] | > 6.30 | > 6.30 | – | – | > 6.30 | 52 | – | –
NC(=O)c1ccc2c(-c3ccnc(NC4CC4)n3)c(-c3ccc(F)cc3)nn2c1 [Example 75, 2-(4-Fluorophenyl)-3-(4-(2-cyclopropylamino)pyrimidinyl)-6-pyrazolo-[1,5-a]pyridinylcarboxamide] | – | > 6.30 | – | – | > 6.30 | 90 | – | –
Nc1ncccc1C(=O)OCc1ccn2nc(-c3ccc(F)cc3)c(-c3ccncc3)c2c1 [Example 16, [2-(4-Fluorophenyl)-3-(4-pyridinyl)pyrazolo[1,5-a]pyridin-5-yl]methyl 2-aminonicotinate] | – | – | > 6.30 | > 6.30 | – | – | > 50000 | –
Fc1ccc(-c2nn3ccccc3c2-c2ccnc(NCc3ccc(Cl)cc3)c2)cc1 [Example 31, N-(4-Chlorobenzyl)-4-[2-(4-fluorophenyl)pyrazolo[1,5-a]pyridin-3-yl]-2-pyridinamine] | – | – | – | > 6.30 | – | – | – | 42

More lines, main results first:

pIC50 (p38 kinase; [5]) | pIC50 ([2]; Table 8, LPS stimulation) | pIC50 (p38 kinase; [6]) | pIC50 ([2]; Table 7, LPS stimulation) | pIC50 [4] | Structure (SMILES) | inhibition in vivo at 30 mg/kg ([1]; Table 8, LPS challenge) [%] | IC50 at 72 h [3] [nM] | inhibition in vivo at 30 mg/kg ([1]; Table 7, LPS challenge) [%]
> 6.30 | > 6.30 | – | – | – | Nc1nccc(-c2c(-c3ccc(F)cc3)nn3ccccc23)n1 [Example 64, 4-[2-(4-Fluorophenyl)pyrazolo[1,5-a]pyridin-3-yl]-2-pyrimidinamine] | 62 | – | –
– | – | > 6.30 | > 6.30 | – | Fc1ccc(-c2nn3ccccc3c2-c2ccnc(NCc3cccnc3)c2)cc1 [Example 37, 4-[2-(4-Fluorophenyl)pyrazolo[1,5-a]pyridin-3-yl]-N-(3-pyridinylmethyl)-2-pyridinamine] | – | 5000 to 50000 | –
> 6.30 | > 6.30 | – | – | – | CCCCNc1nccc(-c2c(-c3ccc(F)cc3)nn3ccccc23)n1 [Example 60, N-Butyl-4-[2-(4-fluorophenyl)pyrazolo[1,5-a]pyridin-3-yl]-2-pyrimidin-amine] | 88 | – | –
> 6.30 | > 6.30 | – | – | – | CSc1nccc(-c2c(-c3ccc(F)cc3)nn3ccccc23)n1 [Example 57, 2-(4-Fluorophenyl)-3-(4-(2-methylthio)pyrimidinyl)pyrazolo[1,5-a]-pyridine] | 56 | – | –
> 6.30 | > 6.30 | – | – | – | Fc1ccc(-c2nn3ccccc3c2-c2ccnc(NCc3ccccn3)n2)cc1 [Example 82, 4-[2-(4-Fluorophenyl)pyrazolo[1,5-a]pyridin-3-yl]-N-(2-pyridinylmethyl)-2-pyrimidinamine] | 87 | – | –

Source: patent US7166597B2, “Fused pyrazole derivatives being protein kinase inhibitors” (Glaxo Group Limited, priority 2000, dated 2007)
